Test results published in ChEMBL document CHEMBL3124887, “Synthesis and anti-inflammatory activity of aromatic glucosinolates” (2013).

Key:
Format in all cases: functional
THP-1 [1] = test: Antiinflammatory activity in human THP1 cells assessed as inhibition of LPS-induced TNF-alpha release measured as TNF-alpha level at 5 uM after 4hrs by ELISA relative to control
THP-1 [2] = test: Antiinflammatory activity in human THP1 cells assessed as inhibition of LPS-induced TNF-alpha release measured as TNF-alpha level at 15 uM after 4hrs by ELISA relative to control
THP-1 [3] = test: Antiinflammatory activity in human THP1 cells assessed as inhibition of LPS-induced TNF-alpha release measured as TNF-alpha level at 10 uM after 4hrs by ELISA relative to control
THP-1 [4] = test: Antiinflammatory activity in human THP1 cells assessed as inhibition of LPS-induced TNF-alpha release measured as TNF-alpha level at 0.5 uM after 4hrs by ELISA relative to control
THP-1 [5] = test: Antiinflammatory activity in human THP1 cells assessed as inhibition of LPS-induced TNF-alpha release measured as TNF-alpha level at 0.1 uM after 4hrs by ELISA relative to control
THP-1 [6] = test: Antiinflammatory activity in human THP1 cells assessed as inhibition of LPS-induced TNF-alpha release measured as TNF-alpha level at 1 uM after 4hrs by ELISA relative to control

O=S(=O)([O-])O/N=C(\S[C@@H]1O[C@H](CO)[C@@H](O)[C@H](O)[C@H]1O)c1ccccc1.[K+]
Activity (THP-1 [1]): 166.58 pg/mL | Activity (THP-1 [2]): 103.57 pg/mL | Activity (THP-1 [3]): 144.15 pg/mL | Activity (THP-1 [4]): 194.44 pg/mL | Activity (THP-1 [5]): 231.15 pg/mL

O=S(=O)([O-])O/N=C(/Cc1ccccc1)S[C@@H]1O[C@H](CO)[C@@H](O)[C@H](O)[C@H]1O.[K+]
Activity (THP-1 [2]): 201.87 pg/mL | Activity (THP-1 [6]): 248.4 pg/mL | Activity (THP-1 [3]): 206.65 pg/mL | Activity (THP-1 [5]): 275.48 pg/mL

O=S(=O)([O-])O/N=C(/CCc1ccccc1)S[C@@H]1O[C@H](CO)[C@@H](O)[C@H](O)[C@H]1O.[K+]
Activity (THP-1 [1]): 115.25 pg/mL | Activity (THP-1 [2]): 74.76 pg/mL | Activity (THP-1 [6]): 138.43 pg/mL | Activity (THP-1 [3]): 96.86 pg/mL

O=S(=O)([O-])O/N=C(/C=C/c1ccccc1)S[C@@H]1O[C@H](CO)[C@@H](O)[C@H](O)[C@H]1O.[K+]
Activity (THP-1 [2]): 79.23 pg/mL | Activity (THP-1 [6]): 149.06 pg/mL | Activity (THP-1 [3]): 122.91 pg/mL

COc1ccc(/C(=N/OS(=O)(=O)[O-])S[C@@H]2O[C@H](CO)[C@@H](O)[C@H](O)[C@H]2O)cc1OC.[K+]
Activity (THP-1 [1]): 128.21 pg/mL | Activity (THP-1 [2]): 69.2 pg/mL | Activity (THP-1 [6]): 144.57 pg/mL | Activity (THP-1 [3]): 93.1 pg/mL | Activity (THP-1 [4]): 161.76 pg/mL

O=S(=O)([O-])O/N=C(\S[C@@H]1O[C@H](CO)[C@@H](O)[C@H](O)[C@H]1O)c1cccc(Cl)c1Cl.[K+]
Activity (THP-1 [1]): 162 pg/mL | Activity (THP-1 [2]): 114.17 pg/mL | Activity (THP-1 [3]): 157.09 pg/mL

O=S(=O)([O-])O/N=C(\S[C@@H]1O[C@H](CO)[C@@H](O)[C@H](O)[C@H]1O)c1ccc(Br)cc1.[K+]
Activity (THP-1 [1]): 173.17 pg/mL | Activity (THP-1 [2]): 111.1 pg/mL | Activity (THP-1 [3]): 122.04 pg/mL | Activity (THP-1 [5]): 165.27 pg/mL

Oc1cc(O)c2c(c1)OC(c1ccc(O)c(O)c1)C(O)C2 (stereo unspecified) [CATECHIN]
Activity (THP-1 [1]): 282.65 pg/mL | Activity (THP-1 [2]): 255.94 pg/mL | Activity (THP-1 [4]): 303.98 pg/mL
